Read-outs that look alike come from different tables or passages of the source.

Test [1] has as its system phosphorylation of CHK2 (phospho-Thr68) in HCT116 cells. The test can be described thus: Cellular pCHK2 assay: bleomycin-induced phosphorylation of CHK2 (phospho-Thr68), immunofluorescence high-content analysis. The class given is cell-based, human. The settings on record: read-out: IC50 (pCHK2). From the text:
For the identification of substances which inhibit the phosphorylation of the protein kinase CHK2 at the amino acid threonine 68, an immunofluorescence-based “high content” analysis assay was used in HCT116 cells.
In vitro cell-based immunofluorescence assay for the identification of inhibitors of bleomycin-induced phosphorylation of CHK2 (phospho-Thr68) in the human colon carcinoma cell line HCT116:
HCT116 cells are sown out in a defined cell density in 384-well plates in culture medium (DMEM high glucose, 2 mM GlutaMax, 1 mM Na pyruvate, 10% FCS) and incubated overnight at 37° C. and 10% of CO2. On the following day, the test substances are added in a defined concentration range (1 nM to 30 μM) in combination with 10 μM bleomycin, where the concentration of the solvent DMSO is kept constant at 0.5%. […] Parallel staining of DNA with propidium iodide enables determination of the cell count. The pCHK2 signal is detected using a high-content imager (Molecular Devices IMX Ultra) and automatic image analysis using the MetaXpress software belonging to the instrument. The number of cell nuclei which have a pCHK2 signal above a defined background is determined.

For test [2], the target named is purified human recombinant ATM (ataxia telangiectasia mutated), full length (Homo sapiens (Human), UniProt Q13315). The test can be described thus: ATM kinase assay - determination of ATM inhibition (IC50 ATM), TR-FRET. The class given is biochemical. Particulars: 10 μM ATP, substrate p53. The procedure: ATM kinase assay—determination of ATM inhibition (IC50 ATM):
The IC50 value was determined with the aid of a biochemical ATM kinase assay. The assay consists of two steps: the enzymatic reaction and the detection step. Firstly, ATM (ataxia telangiectasia mutated) protein and the test substance are incubated at different concentrations with addition of substrate protein p53 and ATP. ATM mediates the phosphorylation of p53 at several positions, including at amino acid S15. The amount of phosphorylated p53 is determined with the aid of specific antibodies and the TR-FRET technique. The enzymatic ATM assay is carried out as TR-FRET (HTRF™, Cisbio Bioassays) based 384-well assay. In the first step, purified human recombinant ATM (human ATM, full length, GenBank ID NM_000051, expressed in a mammal cell line) is incubated in assay buffer for 15 minutes with the ATM inhibitor in various concentrations and without test substance as negative or neutral control. The assay buffer comprises 25 mM HEPES pH 8.0, 10 mM Mg(CH3COO)2, 1 mM MnCl2, 0,1% BSA and 0,01% Brij® 35, 5 mM dithiothreitol (DTT). […] In the second step, purified human recombinant cmyc-labelled p53 (human p53, full length, GenBank ID BC003596, expressed in Sf21 insect cells) and ATP are added, and the reaction mixture is incubated at 22° C. for 30-35 minutes. The pharmacologically relevant assay volume is 5 μl. […] The enzymatic reaction is stopped by addition of EDTA. […] After incubation, usually for 2 hours (between 1.5 and 15h), for signal development, the plates are analysed in a plate reader (EnVision, PerkinElmer) using TRF mode (and with laser excitation). […] The measurement data were processed by means of Genedata Screener software.

Another test has as its target PI3K p110α/p85α (human) (Homo sapiens (Human), UniProt P42336). The test can be described thus: PI3K p110α/p85α (human), non-radioactive assay (HTRF). It counts as biochemical. Particulars: as printed:
The method, then: PI3K p110α/p85α (Human), Non-radioactive Assay
(§1) PI3K p110α/p85α (human) was incubated in an assay buffer comprising 10 μM phosphati-dylinositol 4,5-bisphosphate and MgATP (concentration as necessary). The reaction was initiated by addition of MgATP solution. After incubation at room temperature for 40 minutes, the reaction was stopped by addition of a solution consisting of EDTA and biotinylated phosphatidylinositol 3,4,5-trisphosphate. Finally, the detection buffer, consisting of a europium-labelled anti-GST monoclonal antibody, a GST-labelled GRP1 PH domain and streptavidin allophycocyanin, was added. The plate was read out via homogeneous time-resolved fluorescence (HTRF) and the corresponding signals were evaluated via the formula HTRF=10000×(Em665nm/Em620nm).

The next test addresses PI3K (p120γ) (human) (Homo sapiens (Human), UniProt P48736). The test can be described thus: PI3K (p120γ) (human), non-radioactive assay (HTRF). Particulars: as printed:
The class given is biochemical. The procedure: PI3K (p120γ) (Human), Non-radioactive Assay
as §1, with “(p120γ)” for “p110α/p85α”, “After an” for “After”, “incubation time of 30 min” for “incubation”, “temperature,” for “temperature for 40 minutes,”, “HTRF=10000×(Em665nm/Em620nm). • MgATP=magnesium 5′-O—[hydroxy({[(hydroxyphosphinato)oxy]phosphinato}oxy)phosphoryl]adenosine • MgCl2=magnesium dichloride • EGTA=ethylene glycol bis(aminoethyl ether) N,N,N′,N′-tetraacetic acid • Tween 20=polysorbate 20 Medicament/pharmaceutical Composition” for “HTRF=10000×(Em665nm/Em620nm).”

Another test deals with PI3K p110δ/p85α (human) (Homo sapiens (Human), UniProt O00329). The test can be described thus: PI3K p110δ/p85α (human), non-radioactive assay (HTRF). It counts as biochemical. The settings on record: as printed:
The procedure: PI3K p110δ/p85α (Human), Non-radioactive Assay
as §1, with “p110δ/p85α” for “p110α/p85α”, “After an” for “After”, “incubation time of 30 min” for “incubation”, “temperature,” for “temperature for 40 minutes,”

Where [3] appears, read: HCT116 cells, 10 μM bleomycin, 4 h.

purified human recombinant ATM (ataxia telangiectasia mutated), full length, sequence (Q13315 whole entry, change not shown): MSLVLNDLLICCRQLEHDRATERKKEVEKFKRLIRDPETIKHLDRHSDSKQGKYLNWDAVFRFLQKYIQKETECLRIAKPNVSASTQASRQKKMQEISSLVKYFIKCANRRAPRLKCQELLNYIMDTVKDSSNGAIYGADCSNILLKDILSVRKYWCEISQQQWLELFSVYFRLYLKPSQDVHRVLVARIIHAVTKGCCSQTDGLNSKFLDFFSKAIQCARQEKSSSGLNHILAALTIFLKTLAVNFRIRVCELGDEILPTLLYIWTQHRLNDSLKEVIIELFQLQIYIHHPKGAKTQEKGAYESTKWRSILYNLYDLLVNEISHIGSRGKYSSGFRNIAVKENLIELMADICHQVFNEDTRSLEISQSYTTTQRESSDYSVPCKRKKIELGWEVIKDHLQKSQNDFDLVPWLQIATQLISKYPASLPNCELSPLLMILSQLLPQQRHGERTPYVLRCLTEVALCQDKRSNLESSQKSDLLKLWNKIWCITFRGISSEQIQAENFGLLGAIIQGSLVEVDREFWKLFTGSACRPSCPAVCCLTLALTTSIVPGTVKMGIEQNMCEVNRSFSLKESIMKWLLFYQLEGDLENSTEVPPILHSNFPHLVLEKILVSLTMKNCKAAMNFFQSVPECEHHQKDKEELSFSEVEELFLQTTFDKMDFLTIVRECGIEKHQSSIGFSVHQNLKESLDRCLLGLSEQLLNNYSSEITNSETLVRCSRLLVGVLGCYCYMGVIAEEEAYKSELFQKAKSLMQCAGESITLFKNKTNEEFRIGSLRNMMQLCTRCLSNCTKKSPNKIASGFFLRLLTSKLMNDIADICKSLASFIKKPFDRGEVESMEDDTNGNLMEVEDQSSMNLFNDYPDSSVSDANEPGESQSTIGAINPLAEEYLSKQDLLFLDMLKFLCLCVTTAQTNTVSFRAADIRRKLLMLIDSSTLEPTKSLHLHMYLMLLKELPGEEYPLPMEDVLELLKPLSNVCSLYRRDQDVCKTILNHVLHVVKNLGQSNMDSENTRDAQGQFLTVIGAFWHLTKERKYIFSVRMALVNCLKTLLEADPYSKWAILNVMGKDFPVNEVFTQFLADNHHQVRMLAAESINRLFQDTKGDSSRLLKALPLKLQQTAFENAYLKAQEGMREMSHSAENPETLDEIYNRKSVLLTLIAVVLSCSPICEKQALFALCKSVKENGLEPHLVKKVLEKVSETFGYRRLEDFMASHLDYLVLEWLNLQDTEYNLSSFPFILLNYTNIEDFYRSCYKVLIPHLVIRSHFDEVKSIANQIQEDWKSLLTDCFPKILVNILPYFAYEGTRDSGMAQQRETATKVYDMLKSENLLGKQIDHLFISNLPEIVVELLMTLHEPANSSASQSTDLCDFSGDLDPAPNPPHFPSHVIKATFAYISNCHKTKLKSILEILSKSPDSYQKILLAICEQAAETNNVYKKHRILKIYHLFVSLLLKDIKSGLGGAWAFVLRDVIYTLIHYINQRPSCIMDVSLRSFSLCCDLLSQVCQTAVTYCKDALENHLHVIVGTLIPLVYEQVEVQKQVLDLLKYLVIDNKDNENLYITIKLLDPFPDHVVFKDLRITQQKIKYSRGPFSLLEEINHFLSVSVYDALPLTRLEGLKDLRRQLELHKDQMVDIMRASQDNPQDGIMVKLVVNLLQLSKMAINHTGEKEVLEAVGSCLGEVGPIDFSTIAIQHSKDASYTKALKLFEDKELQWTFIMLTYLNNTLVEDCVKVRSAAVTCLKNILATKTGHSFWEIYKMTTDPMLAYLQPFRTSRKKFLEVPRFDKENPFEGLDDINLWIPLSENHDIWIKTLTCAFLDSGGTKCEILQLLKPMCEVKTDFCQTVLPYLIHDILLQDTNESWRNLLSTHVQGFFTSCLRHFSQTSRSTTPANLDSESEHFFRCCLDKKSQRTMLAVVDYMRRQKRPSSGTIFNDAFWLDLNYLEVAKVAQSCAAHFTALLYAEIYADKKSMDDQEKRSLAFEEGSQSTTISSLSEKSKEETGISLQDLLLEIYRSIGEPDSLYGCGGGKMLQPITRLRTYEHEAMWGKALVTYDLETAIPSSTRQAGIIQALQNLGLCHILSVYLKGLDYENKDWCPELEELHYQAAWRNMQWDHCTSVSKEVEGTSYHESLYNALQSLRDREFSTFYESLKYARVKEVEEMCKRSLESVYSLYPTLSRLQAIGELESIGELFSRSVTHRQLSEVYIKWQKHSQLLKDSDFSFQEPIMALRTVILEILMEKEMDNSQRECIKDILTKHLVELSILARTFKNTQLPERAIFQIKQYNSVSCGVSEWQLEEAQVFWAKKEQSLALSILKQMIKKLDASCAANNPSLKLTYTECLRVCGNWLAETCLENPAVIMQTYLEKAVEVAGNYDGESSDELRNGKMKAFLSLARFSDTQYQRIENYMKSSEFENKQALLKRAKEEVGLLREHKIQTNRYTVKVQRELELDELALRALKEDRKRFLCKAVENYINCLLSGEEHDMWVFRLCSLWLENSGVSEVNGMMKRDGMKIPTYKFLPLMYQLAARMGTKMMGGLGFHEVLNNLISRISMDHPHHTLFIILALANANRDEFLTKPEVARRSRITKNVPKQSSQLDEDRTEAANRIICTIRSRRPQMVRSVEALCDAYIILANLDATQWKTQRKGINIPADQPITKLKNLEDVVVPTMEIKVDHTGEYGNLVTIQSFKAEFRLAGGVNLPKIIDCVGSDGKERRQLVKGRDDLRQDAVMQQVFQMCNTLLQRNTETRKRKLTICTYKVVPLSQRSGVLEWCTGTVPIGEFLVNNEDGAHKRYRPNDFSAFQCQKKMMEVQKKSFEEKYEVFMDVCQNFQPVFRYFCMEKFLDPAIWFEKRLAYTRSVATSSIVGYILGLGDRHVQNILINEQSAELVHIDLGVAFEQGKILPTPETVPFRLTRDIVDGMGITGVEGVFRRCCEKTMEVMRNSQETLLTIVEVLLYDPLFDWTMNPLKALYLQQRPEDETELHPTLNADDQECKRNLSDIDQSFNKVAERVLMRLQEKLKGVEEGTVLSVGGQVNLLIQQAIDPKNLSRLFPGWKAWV
PI3K (p120γ) (human), sequence (P48736 whole entry): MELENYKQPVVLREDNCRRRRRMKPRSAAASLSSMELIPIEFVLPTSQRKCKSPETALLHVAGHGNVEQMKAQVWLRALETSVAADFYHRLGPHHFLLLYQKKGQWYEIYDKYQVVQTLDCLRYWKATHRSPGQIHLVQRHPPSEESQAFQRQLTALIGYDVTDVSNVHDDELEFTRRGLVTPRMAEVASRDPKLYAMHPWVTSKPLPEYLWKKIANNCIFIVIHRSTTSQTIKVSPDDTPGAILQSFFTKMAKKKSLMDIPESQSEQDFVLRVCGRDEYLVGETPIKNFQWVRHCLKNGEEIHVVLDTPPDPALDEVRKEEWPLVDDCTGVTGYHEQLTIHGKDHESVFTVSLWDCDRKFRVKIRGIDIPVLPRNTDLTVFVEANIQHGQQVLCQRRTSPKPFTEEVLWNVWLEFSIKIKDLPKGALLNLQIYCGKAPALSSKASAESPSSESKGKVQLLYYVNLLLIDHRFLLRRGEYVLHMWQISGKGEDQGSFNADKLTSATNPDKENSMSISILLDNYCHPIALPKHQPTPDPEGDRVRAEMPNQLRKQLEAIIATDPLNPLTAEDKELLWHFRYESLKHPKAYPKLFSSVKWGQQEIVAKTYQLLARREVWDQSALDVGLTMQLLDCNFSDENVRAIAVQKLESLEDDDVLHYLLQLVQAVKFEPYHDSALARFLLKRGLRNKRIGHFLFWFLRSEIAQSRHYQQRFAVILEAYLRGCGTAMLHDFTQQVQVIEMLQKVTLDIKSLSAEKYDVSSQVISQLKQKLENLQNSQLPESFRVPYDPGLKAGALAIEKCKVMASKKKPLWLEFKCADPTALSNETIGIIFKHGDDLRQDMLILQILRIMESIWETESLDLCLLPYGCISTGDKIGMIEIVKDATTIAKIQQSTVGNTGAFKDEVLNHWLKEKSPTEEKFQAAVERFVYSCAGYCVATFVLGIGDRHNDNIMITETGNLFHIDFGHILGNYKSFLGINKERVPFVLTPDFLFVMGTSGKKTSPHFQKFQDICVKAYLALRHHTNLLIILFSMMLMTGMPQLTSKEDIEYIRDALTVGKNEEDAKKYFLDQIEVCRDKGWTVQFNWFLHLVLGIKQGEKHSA

By IC50 is commonly meant the point on the concentration scale where inhibition reaches its midpoint. With “1-(3-Fluoro-5-methylpyridin- 4-yl)-7-methoxy-3-methyl-8- (2-methyl-2H-1,2,3-triazol- 4-yl)-1,3-dihydroimidazo- [4,5-c] quinolin-2-one [compound 103]”, the IC50 in test [1] (setting [3]) is 200 to 1000 nM; in test [2] it was below 50 nM.

On to `CCn1cc(-c2cc3c(cc2OC)ncc2c3n(-c3c(F)cncc3OC)c(=O)n2C)cn1` [Example 13], for which, in test [1] (setting [3]), the IC50 was below 200 nM.

Regarding `COCCOc1cnc(-n2c(=O)n(C)c3cnc4cc(OC)c(-c5cnn(C)c5)cc4c32)c(F)c1` [compound 66, 1-[3-Fluoro-5-(2-methoxy-ethoxy)-2-pyridyl]-7-methoxy-3-methyl-8-(1-methylpyrazol-4-yl)imidazo-[4,5-c]quinolin-2-one], the half-inhibitory concentration (IC50) in test [1] (Homo sapiens, HCT-116, 4 h) is below 200 nM; in test [2], below 1 nM. The “ratio IC50 (ATM) vs PI3Kalpha, selectivity with respect to PI3Kalpha” value at PI3K p110α/p85α (human) is “at least 2000 times”. In addition, the “ratio IC50 (ATM) vs PI3Kgamma, selectivity with respect to PI3Kgamma” value at PI3K (p120γ) (human) is on record as “at least 2000 times”. For the same compound, at PI3K p110δ/p85α (human), the “ratio IC50 (ATM) vs PI3Kdelta, selectivity with respect to PI3Kdelta” value is “at least 2000 times”.

With `COc1cc2ncc3c(c2cc1-c1cnn(C)c1)n(-c1ncc(OCCO)cc1F)c(=O)n3C` [compound 67, 1-[3-Fluoro-5-(2-hydroxy-ethoxy)-2-pyridyl]-7-methoxy-3-methyl-8-(1-methylpyrazol-4-yl)imidazo-[4,5-c]quinolin-2-one], the IC50 is below 200 nM in test [1] (Homo sapiens, HCT-116, 4 h) and below 1000 nM in test [2]. The “ratio IC50 (ATM) vs PI3Kalpha, selectivity with respect to PI3Kalpha” value on PI3K p110α/p85α (human) is “at least 2000 times”. The “ratio IC50 (ATM) vs PI3Kgamma, selectivity with respect to PI3Kgamma” value on PI3K (p120γ) (human) was “at least 2000 times”. Further, the “ratio IC50 (ATM) vs PI3Kdelta, selectivity with respect to PI3Kdelta” value at PI3K p110δ/p85α (human) is recorded as “at least 2000 times”.

As to `COc1cnc(-n2c(=O)n(C)c3cnc4cc(OC)c(-c5cnn(C)c5)cc4c32)c(F)c1` [compound 105, 1-(3-Fluoro-5-methoxy-pyridin-2-yl)-7-methoxy-3-methyl-8-(1-methyl-1H-pyrazol-4-yl)-1,3-dihydro-imidazo[4,5-c]quinolin-2-one], the IC50 in test [1] (Homo sapiens, HCT-116, 4 h) was 200 to 1000 nM; in test [2], below 1 nM.

For `COc1cc2ncc3c(c2cc1-c1cnn(C)c1)n(-c1ncc(OC(F)F)cc1F)c(=O)n3C` [compound 114, 1-(5-Difluoromethoxy-3-fluoropyridin-2-yl)-7-methoxy-3-methyl-8-(1-methyl-1H-pyrazol-4-yl)-1,3-dihydroimidazo[4,5-c]-quinolin-2-one], the IC50 in test [1] (Homo sapiens, HCT-116, 4 h) is below 200 nM; in test [2] it was below 1 nM. Besides, the “ratio IC50 (ATM) vs PI3Kalpha, selectivity with respect to PI3Kalpha” value on PI3K p110α/p85α (human) is “at least 2000 times”. Besides, the “ratio IC50 (ATM) vs PI3Kgamma, selectivity with respect to PI3Kgamma” value at PI3K (p120γ) (human) was “at least 2000 times”. For the same compound, the “ratio IC50 (ATM) vs PI3Kdelta, selectivity with respect to PI3Kdelta” value on PI3K p110δ/p85α (human) is on record as “at least 2000 times”.

Turning to `COc1cc2ncc3c(c2cc1-c1c[nH]nc1C)n(-c1ncc(F)cc1F)c(=O)n3C` [compound 117, 1-(3,5-Difluoropyridin-2-yl)-7-methoxy-3-methyl-8-(3-methyl-1H-pyrazol-4-yl)-1,3-dihydroimidazo[4,5-c]-quinolin-2-one], the IC50 in test [1] (Homo sapiens, HCT-116, 4 h) is 200 to 1000 nM; in test [2], below 10 nM. Moreover, on PI3K p110α/p85α (human), the “ratio IC50 (ATM) vs PI3Kalpha, selectivity with respect to PI3Kalpha” value was “at least 2000 times”. In addition, the “ratio IC50 (ATM) vs PI3Kgamma, selectivity with respect to PI3Kgamma” value on PI3K (p120γ) (human) is on record as “at least 2000 times”. Further, at PI3K p110δ/p85α (human), the “ratio IC50 (ATM) vs PI3Kdelta, selectivity with respect to PI3Kdelta” value is “at least 2000 times”.

Regarding `COc1cc2ncc3c(c2cc1-c1cc[nH]n1)n(-c1cn(C)nc1C)c(=O)n3C` [compound 121, 1-(1,3-Dimethyl-1H-pyrazol-4-yl)-7-methoxy-3-methyl-8-(1H-pyrazol-3-yl)-1,3-dihydroimidazo[4,5-c]-quinolin-2-one], the half-inhibitory concentration (IC50) in test [1] (Homo sapiens, HCT-116, 4 h) is below 200 nM; in test [2], below 10 nM.

On to `CNC(=O)c1cnc(-n2c(=O)n(C)c3cnc4cc(OC)c(-c5cnn(C)c5)cc4c32)c(F)c1` [compound 138, 5-Fluoro-6-[7-methoxy-3-methyl-8-(1-methyl-1H-pyrazol-4-yl)-2-oxo-2,3-dihydroimidazo[4,5-c]-quinolin-1-yl]-N-methyl-nicotinamid], for which the IC50 in test [1] (Homo sapiens, HCT-116, 4 h) is 200 to 1000 nM; in test [2] it was below 10 nM.

Take `COc1cc2ncc3c(c2cc1-c1cnn(C)c1)n(-c1cn(C)nc1F)c(=O)n3C` [compound 141, 1-(3-Fluoro-1-methyl-1H-pyrazol-4-yl)-7-methoxy-3-methyl-8-(1-methyl-1H-pyrazol-4-yl)-1,3-dihydro-imidazo[4,5-c]quinolin-2-one]: the concentration for half-maximal inhibition (IC50) is 200 to 1000 nM in test [1] (Homo sapiens, HCT-116, 4 h) and below 10 nM in test [2].

`COc1cc2ncc3c(c2cc1-c1cn(C)nc1C)n(-c1c(F)cncc1OC(F)F)c(=O)n3C` [compound 147, 1-(3-Difluoromethoxy-5-fluoropyridin-4-yl)-8-(1,3-dimethyl-1H-pyrazol-4-yl)-7-methoxy-3-methyl-1,3-dihydroimidazo[4,5-c]-quinolin-2-one]: the 50% inhibitory concentration (IC50) in test [1] (Homo sapiens, HCT-116, 4 h) is below 200 nM; in test [2], below 1 nM.

Turning to `[2H]C([2H])([2H])Oc1cnc(-n2c(=O)n(C)c3cnc4cc(OC)c(-c5cnn(C)c5)cc4c32)c(F)c1` [compound 155, 1-[3-Fluoro-5-(trideuterio-methoxy)-2-pyridyl]-7-methoxy-3-methyl-8-(1-methylpyrazol-4-yl) imidazo-[4,5-c]quinolin-2-one], the 50% inhibitory concentration (IC50) was below 200 nM in test [1] (Homo sapiens, HCT-116, 4 h) and below 1 nM in test [2].

As for `CCc1cnccc1-n1c(=O)n(C)c2cnc3cc(OC)c(-c4cnn(CC)c4)cc3c21` [compound 157, 8-(1-Ethyl-1H-pyrazol-4-yl)-1-(3-ethylpyridin-4-yl)-7-methoxy-3-methyl-1,3-dihydroimidazo[4,5-c] quinolin-2-one], the IC50 in test [1] (Homo sapiens, HCT-116, 4 h) is below 200 nM; in test [2], below 10 nM.

The values are drawn from patent publication US10457677B2 (priority 2015, dated 2019).
